Like-named read-outs stand apart in the source and are kept apart here.
Key:
Type in all cases: biochemical
JAK3 = target: T1, JAK3 (Homo sapiens, UniProt P52333); test: Detection of enzyme activity inhibition of JAK kinases (ULight-JAK substrate, Eu-antibody), JAK3; conditions: ATP 10 μM, substrate 50 nM, 1 hour reaction at room temperature; read-out: JAK3 half-maximum inhibitory concentration (IC50)
T1 sequence (P52333 1-1124): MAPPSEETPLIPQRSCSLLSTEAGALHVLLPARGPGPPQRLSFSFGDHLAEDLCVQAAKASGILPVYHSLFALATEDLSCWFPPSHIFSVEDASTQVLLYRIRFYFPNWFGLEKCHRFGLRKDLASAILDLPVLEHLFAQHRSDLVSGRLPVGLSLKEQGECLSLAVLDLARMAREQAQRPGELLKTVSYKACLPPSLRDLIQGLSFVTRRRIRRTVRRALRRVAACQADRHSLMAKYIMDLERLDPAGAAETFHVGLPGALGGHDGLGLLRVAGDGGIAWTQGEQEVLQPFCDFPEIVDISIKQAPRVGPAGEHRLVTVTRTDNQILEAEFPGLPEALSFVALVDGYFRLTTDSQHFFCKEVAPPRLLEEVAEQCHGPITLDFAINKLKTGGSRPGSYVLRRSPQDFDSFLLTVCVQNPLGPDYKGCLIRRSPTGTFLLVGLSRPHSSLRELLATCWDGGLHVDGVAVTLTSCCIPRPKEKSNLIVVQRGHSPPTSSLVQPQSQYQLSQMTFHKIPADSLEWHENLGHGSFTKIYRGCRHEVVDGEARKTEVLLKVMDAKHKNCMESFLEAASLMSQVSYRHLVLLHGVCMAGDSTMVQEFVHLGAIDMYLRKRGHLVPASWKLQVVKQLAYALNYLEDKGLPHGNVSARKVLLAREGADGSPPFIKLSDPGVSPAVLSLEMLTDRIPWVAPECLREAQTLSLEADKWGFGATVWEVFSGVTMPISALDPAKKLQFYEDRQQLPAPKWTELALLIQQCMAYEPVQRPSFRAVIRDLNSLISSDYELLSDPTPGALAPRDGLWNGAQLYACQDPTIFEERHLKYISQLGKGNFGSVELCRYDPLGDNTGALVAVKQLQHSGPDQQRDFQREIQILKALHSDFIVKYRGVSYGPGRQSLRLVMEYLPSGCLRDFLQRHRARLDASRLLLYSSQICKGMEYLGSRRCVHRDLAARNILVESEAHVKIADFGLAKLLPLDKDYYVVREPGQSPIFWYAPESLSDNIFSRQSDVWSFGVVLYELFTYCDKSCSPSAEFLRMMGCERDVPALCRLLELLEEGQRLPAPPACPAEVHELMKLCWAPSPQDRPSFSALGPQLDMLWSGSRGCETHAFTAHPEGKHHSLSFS
Protocol: (§1) Kinase reaction buffer: The kinase reaction buffer was prepared with the following components: 50 mM HEPES, pH 7.5, 1 mM EGTA, 10 mM MgCl2, 2 mM DTT, and 0.01% Tween20. 1× test buffer: A test buffer was prepared, and the 10× test buffer was diluted with deionized water (deionized water: test buffer=9:1) to obtain the 1× test buffer. 4× kinase solution: JAK kinase was diluted with a kinase reaction buffer to a final concentration of 4× (JAK1:80 nM, JAK2/JAK3/Tyk2:4 nM). 4× substrate solution: ULight™-JAK (Tyr1023) substrate was diluted with the kinase reaction buffer to 200 nM (final concentration: 50 nM). 4× ATP solution: ATP was diluted with the kinase reaction buffer to a final concentration of 4× (JAK1:160 μM, JAK2/JAK3/Tyk2: 40 μM). 4× test compound solution: The compounds to be tested were dissolved in DMSO to prepare 10 mM stock solutions, which were diluted to have the desired concentrations through 3-fold gradient dilution, 10 concentrations were set for each compound, and final concentrations of the test compounds ranged from 10 μM to 0.5 nM. 4× enzyme reaction termination solution: EDTA was dissolved in a 1× test buffer to 40 mM (final concentration of EDTA: 10 mM). 4× test antibody solution: Eu-labeled test antibodies (anti-phosphotyrosine (PT66)) were diluted with 1× test buffer to 8 nM (final concentration of the antibodies: 2 nM). 2.5 μL of the 4× kinase solution and 2.5 μL of each of the 4× test compound solutions having different concentrations were added into a 384-well microwell plate sequentially, with 2 duplicate wells set for each concentration, and an enzyme solution blank control group and a negative control group (DMSO group) were also provided. The 384-well plate was oscillated to mix the enzyme and the compound uniformly, centrifuged at 1000 rpm for 1 minute, and incubated at room temperature for 60 minutes. 2.5 μL of the 4× substrate solution was added into the 384-well plate, and centrifuged at 1000 rpm for 1 minute. 2.5 μL of the 4× ATP solution was added into the 384-well plate, and centrifuged at 1000 rpm for 1 minute to start the enzyme reaction. JAK1 reacted at room temperature for 2 hours, and JAK2/JAK3/Tyk2 reacted at room temperature for 1 hour. The final concentration of each component in the JAK1 reaction was: JAK1:20 nM; substrate: 50 nM; and ATP: 40 μM. The final concentrations of the test compounds ranged from 10 μM to 0.5 nM. The final concentration of each component in the JAK2/JAK3/Tyk2 reaction was: JAK2:1 nM; substrate: 50 nM; and ATP: 10 μM. The final concentrations of the test compounds ranged from 10 μM to 0.5 nM. After the enzyme reaction ended, 5 μL of the 4× enzyme reaction termination solution was added into each well of the 384-well plate, centrifuged at 1000 rpm for 1 minute, and incubated at room temperature for 5 minutes. 5 μL of the 4× test antibody solution (final concentration of the test antibodies was 2 nM) was added into each well of the 384-well plate, centrifuged at 1000 rpm for 1 minute, and incubated at room temperature for 1 hour. After incubation of the antibodies, a signal value of each well was measured with Envision plate reader. Assuming that an inhibition rate of the enzyme solution blank control group was 100% and an inhibition rate of the negative control group (DMSO group) was 0%, an inhibition rate corresponding to each concentration was calculated. Nonlinear regression analysis was performed on the concentration logarithm values and corresponding percentage inhibition rates of the test compounds in GraphPad Prism software to obtain the half-maximum inhibitory concentrations (IC50) of the test compounds.

JAK2 = JAK2 (Homo sapiens, UniProt O60674); test: Detection of enzyme activity inhibition of JAK kinases (ULight-JAK substrate, Eu-antibody), JAK2; conditions: JAK2 1 nM, ATP 10 μM, substrate 50 nM, 1 hour reaction at room temperature, read-out: JAK2 half-maximum inhibitory concentration (IC50)
Protocol: as §1

Tyk2 = Tyk2 (Homo sapiens, UniProt P29597); test: Detection of enzyme activity inhibition of JAK kinases (ULight-JAK substrate, Eu-antibody), Tyk2; conditions: ATP 10 μM, substrate 50 nM, 1 hour reaction at room temperature, read-out: Tyk2 half-maximum inhibitory concentration (IC50)
Protocol: as §1

JAK1 = JAK1 (Homo sapiens, UniProt P23458); test: Detection of enzyme activity inhibition of JAK kinases (ULight-JAK substrate, Eu-antibody), JAK1; conditions: JAK1 20 nM, ATP 40 μM, substrate 50 nM, 2 hours reaction at room temperature, read-out: JAK1 half-maximum inhibitory concentration (IC50)
Protocol: as §1

JAK1, sequence (P23458 whole entry): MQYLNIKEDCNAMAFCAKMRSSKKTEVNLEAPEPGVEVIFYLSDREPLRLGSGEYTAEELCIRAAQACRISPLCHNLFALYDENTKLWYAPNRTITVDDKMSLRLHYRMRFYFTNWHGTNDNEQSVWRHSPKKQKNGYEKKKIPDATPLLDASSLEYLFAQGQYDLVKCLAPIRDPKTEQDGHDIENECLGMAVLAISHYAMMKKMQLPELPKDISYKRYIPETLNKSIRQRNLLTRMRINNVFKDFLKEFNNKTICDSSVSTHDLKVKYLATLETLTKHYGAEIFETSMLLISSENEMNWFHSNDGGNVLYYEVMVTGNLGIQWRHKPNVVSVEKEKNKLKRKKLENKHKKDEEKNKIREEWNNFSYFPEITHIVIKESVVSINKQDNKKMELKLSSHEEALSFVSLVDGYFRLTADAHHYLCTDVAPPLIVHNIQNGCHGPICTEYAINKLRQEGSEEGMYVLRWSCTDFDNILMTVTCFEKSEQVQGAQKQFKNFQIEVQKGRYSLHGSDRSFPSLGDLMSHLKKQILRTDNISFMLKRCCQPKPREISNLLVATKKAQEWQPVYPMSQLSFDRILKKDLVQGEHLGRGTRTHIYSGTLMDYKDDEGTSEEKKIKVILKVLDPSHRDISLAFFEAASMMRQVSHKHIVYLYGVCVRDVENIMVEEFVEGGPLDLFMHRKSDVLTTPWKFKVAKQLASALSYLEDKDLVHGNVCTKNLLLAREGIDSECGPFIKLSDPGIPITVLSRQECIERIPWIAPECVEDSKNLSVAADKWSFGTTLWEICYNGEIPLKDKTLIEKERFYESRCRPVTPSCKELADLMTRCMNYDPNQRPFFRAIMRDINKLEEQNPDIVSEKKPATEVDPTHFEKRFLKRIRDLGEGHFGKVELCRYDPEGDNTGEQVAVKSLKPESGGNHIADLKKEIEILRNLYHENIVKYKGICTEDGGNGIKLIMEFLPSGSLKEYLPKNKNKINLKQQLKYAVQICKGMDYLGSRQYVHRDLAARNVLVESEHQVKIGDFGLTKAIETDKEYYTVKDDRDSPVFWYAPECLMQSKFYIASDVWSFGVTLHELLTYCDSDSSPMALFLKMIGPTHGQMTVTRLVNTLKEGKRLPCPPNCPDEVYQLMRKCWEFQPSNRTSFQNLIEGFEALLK
JAK2, sequence (O60674 whole entry): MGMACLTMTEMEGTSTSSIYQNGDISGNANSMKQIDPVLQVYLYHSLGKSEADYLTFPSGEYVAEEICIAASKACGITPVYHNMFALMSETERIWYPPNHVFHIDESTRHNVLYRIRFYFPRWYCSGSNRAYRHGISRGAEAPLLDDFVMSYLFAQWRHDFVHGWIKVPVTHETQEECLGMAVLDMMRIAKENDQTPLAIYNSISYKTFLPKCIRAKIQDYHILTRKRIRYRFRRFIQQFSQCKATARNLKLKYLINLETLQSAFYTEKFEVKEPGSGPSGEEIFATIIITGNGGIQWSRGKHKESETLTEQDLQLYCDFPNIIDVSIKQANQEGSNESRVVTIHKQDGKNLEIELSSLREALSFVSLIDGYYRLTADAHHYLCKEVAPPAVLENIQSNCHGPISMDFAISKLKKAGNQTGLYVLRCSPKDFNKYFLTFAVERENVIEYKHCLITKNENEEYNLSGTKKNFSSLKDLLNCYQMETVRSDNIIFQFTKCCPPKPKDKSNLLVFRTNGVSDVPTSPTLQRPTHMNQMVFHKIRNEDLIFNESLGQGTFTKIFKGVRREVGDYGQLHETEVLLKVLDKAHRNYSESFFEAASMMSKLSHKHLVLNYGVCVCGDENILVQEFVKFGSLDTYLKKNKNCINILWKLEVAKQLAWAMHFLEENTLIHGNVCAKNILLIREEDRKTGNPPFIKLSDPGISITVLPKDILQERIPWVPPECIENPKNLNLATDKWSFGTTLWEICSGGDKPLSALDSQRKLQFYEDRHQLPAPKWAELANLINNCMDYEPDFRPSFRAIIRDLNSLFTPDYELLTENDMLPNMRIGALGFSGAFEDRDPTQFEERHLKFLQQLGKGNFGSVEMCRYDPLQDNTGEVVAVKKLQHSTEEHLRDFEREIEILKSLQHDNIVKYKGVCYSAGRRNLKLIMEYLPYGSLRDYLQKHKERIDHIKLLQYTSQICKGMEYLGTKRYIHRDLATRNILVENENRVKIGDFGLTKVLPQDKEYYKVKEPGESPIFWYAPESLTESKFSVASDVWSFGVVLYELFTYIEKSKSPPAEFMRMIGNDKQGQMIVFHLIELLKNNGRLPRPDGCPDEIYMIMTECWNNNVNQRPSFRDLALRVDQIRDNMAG
Tyk2, sequence (P29597 whole entry): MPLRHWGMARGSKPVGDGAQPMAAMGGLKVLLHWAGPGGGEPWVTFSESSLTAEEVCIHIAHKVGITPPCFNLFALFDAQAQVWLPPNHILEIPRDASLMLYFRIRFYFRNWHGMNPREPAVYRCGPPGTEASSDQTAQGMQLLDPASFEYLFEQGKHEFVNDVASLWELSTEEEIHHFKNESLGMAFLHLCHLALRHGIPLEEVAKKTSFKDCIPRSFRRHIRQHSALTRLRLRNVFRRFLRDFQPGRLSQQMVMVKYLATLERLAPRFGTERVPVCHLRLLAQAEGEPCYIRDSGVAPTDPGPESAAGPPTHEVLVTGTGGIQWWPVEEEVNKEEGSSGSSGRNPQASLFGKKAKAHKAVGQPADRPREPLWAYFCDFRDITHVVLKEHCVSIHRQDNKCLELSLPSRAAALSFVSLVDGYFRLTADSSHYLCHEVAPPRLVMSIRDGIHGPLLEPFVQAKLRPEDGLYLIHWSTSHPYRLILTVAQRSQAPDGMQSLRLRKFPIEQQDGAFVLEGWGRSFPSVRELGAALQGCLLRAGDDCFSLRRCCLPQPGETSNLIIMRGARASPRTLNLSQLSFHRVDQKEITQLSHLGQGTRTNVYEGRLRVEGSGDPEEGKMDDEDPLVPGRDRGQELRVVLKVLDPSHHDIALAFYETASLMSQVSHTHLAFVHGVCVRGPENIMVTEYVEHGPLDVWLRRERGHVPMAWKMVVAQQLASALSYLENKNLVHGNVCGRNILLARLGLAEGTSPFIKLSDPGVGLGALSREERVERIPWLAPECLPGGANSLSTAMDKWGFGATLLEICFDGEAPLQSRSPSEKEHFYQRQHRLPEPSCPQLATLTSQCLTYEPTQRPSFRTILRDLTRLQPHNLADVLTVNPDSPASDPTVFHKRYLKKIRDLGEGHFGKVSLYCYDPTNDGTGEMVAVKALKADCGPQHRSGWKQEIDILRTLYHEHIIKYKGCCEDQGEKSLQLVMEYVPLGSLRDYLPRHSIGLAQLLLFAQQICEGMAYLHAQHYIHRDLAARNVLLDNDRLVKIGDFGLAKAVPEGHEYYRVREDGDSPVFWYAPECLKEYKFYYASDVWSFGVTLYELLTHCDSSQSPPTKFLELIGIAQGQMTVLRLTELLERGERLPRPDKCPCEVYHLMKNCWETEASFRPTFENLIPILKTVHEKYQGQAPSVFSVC

Row | IC50 (JAK3) [nM] | IC50 (JAK2) [nM] | IC50 (Tyk2) [nM] | IC50 (JAK1) [nM] | IC50 (JAK1; listed as TDM-18097) [nM] | IC50 (JAK2; listed as TDM-18097) [nM] | IC50 (Tyk2; listed as TDM-18097) [nM] | Compound
1 | 443 | 9 | 7 | – | – | – | – | CCNC(=O)c1ccc(Nc2nccc(-c3ccn(C4(CC#N)CN(C(=O)[C@@H]5CC5(F)F)C4)c3)n2)cc1 [TDM-180973, (S)-4-((4-(1-(3-(cyanomethyl)-1-(2,2-difluorocyclopropane-1-carbonyl)azetidin-3-yl)-1H-pyrrol-3-yl)pyrimidin-2-yl)amino)-N-ethylbenzamide]
2 | 674 | 7 | 8 | 12 | – | – | – | Cc1cc(Nc2nccc(-c3ccn(C4(CC#N)CN(C(=O)[C@@H]5CC5(F)F)C4)c3)n2)cnc1C(N)=O [TDM-180975, (S)-5-((4-(1-(3-(cyanomethyl)-1-(2,2-difluorocyclopropane-1-carbonyl)azetidin-3-yl)-1H-pyrrol-3-yl)pyrimidin-2-yl)amino)-3-methylpyridinolineamide]
3 | 599 | 13 | 9 | 9 | – | – | – | CNC(=O)c1ncc(Nc2nccc(-c3ccn(C4(CC#N)CN(C(=O)[C@@H]5CC5(F)F)C4)c3)n2)cc1C [TDM-180976, (S)-5-((4-(1-(3-(cyanomethyl)-1-(2,2-difluorocyclopropane-1-carbonyl)azetidin-3-yl)-1H-pyrrol-3-yl)pyrimidin-2-yl)amino)-N,3-dimethylpyridinecarboxamide]
4 | 1300 | 22 | 19 | 18 | – | – | – | CCNC(=O)c1ccc(Nc2nccc(-c3cnn(C4(CC#N)CN(C(=O)[C@@H]5CC5(F)F)C4)c3)n2)cc1 [TDM-180982, (S)-4-((4-(1-(3-(cyanomethyl)-1-(2,2-difluorocyclopropane-1-carbony)azetidn-3-yl)-1H-pyrazol-4-yl)pyrimidin-2-yl)amino)-N-ethylbenzamide]
5 | 791 | 27 | 17 | 45 | – | – | – | CCNC(=O)c1ccc(Nc2nccc(-c3cnn(C4(CC#N)CN(C(=O)[C@@H]5CC5(F)F)C4)c3)n2)cc1C [TDM-180983]
6 | 2370 | 64 | 21 | 54 | – | – | – | CNC(=O)c1ncc(Nc2nccc(-c3cnn(C4(CC#N)CN(C(=O)[C@@H]5CC5(F)F)C4)c3)n2)cc1C [TDM-180985, (S)-5-((4-(1-(3-(cyanomethyl)-1-(2,2-difluorocyclopropane-1-carbonyl)azetidin-3-yl)-1H-pyrazol-4-yl)pyrimidin-2-yl)amino)-N,3-dimethylpyridinecarboxamide]
7 | 3060 | 52 | 56 | 125 | – | – | – | Cc1cc(Nc2nccc(-c3cnn(C4(CC#N)CN(C(=O)[C@@H]5CC5(F)F)C4)c3)n2)cnc1C(N)=O [TDM-180986, (S)-5-((4-(1-(3-(cyanomethyl)-1-(2,2-difluorocyclopropane-1-carbonyl)azetidin-3-yl)-1H-pyrazol-4-yl)pyrimidin2-yl)amino)-3-methylpyridinolineamide]
8 | – | – | 112 | 224 | – | – | – | CC(CO)c1ccc(Nc2nccc(-c3cnn(C4(CC#N)CN(C(=O)[C@@H]5CC5(F)F)C4)c3)n2)cn1 (stereo partly drawn) [TDM-180990, 2-(1-((S)-2,2-difluorocyclopropane-1-carbonyl)-3-(4-(2-((6-(1-hydroxypropan-2-yl)pyridine-3-yl)amino)pyrimidin-4-yl)-1H-pyrazol-1-yl)azetidin-3-yl)acetonitrile]
9 | 843 | 38 | 39 | 55 | – | – | – | CC(CO)c1ccc(Nc2nccc(-c3ccn(C4(CC#N)CN(C(=O)[C@@H]5CC5(F)F)C4)c3)n2)cn1 (stereo partly drawn) [TDM-180996, 2-(1-((S)-2,2-difluorocyclopropane-1-carbonyl)-3-(3-(2-((6-(1-hydroxypropan-2-yl)pyridine-3-yl)amino)pyrimidin-4-yl)-1H-pyrrol-1-yl)azetidin-3-yl) acetonitrile]
10 | 280 | 12 | 11 | 7 | ~10 | ~10 | ~10 | (S)-4-((4-(1-(3-(cyanomethyl)-1-(2,2-difluorocyclopropane-1-carbonyl)azetidin-3-yl)-1H-pyrrol-3-yi)pyrimidin-2-yl)amino)-N-ethyl-2-methylbenzamide [TDM-180978]

From patent US12552780B2, “Small molecule compound serving as jak kinase inhibitor, and use thereof” (TECHNODERMA MEDICINES, INC., priority 2020, dated 2026)
